Assay results from ChEMBL document CHEMBL1147343, “Isolation and identification of an antifungal naphthopyran derivative from Rhinacanthus nasutus” (1993).
Converted amounts (≈) assume the structure as drawn.

Test system: Pyricularia oryzae
Assay: Antifungal activity against Pyricularia oryzae assessed as inhibition of spore germination
Assay type: functional
Details: read-out: ED50 (the source's name)

CC1(C)COC2=C(C1)C(=O)c1ccccc1C2=O
EC50: 0.4 µg/mL (≈ 1.65 µM)
